Data reported in patent publication US8476197B2, “Aminopropenoates as fungicides” (priority 2009, dated 2013).
Marks after values point to notes of the source that are not given here.

Conditions: pH 2.7

| Compound | Log P |
| --- | --- |
| COC(=O)C(C#N)=C(NC(C)c1ccc(F)cc1)c1cccnc1Cl (stereo not drawn) [Compound 397] | 2.89^[a] |
| COC(=O)C(C#N)=C(NC(c1ccccc1)C1CC1)c1cccnc1Cl (stereo not drawn) [Compound 398] | 3.24^[a] |
| COC(=O)C(C#N)=C(NC(C)(C)c1ccc(F)cc1)c1cccnc1Cl [Compound 399] | 2.98^[a] |
| COC(=O)C(C#N)=C(NC(C)c1ccc(OC)c(OC)c1)c1cccnc1Cl (stereo not drawn) [Compound 400] | 2.34^[a] |
| COC(=O)C(C#N)=C(NC(C)c1cccc(C(F)(F)F)c1)c1cccnc1Cl (stereo not drawn) [Compound 401] | 3.28^[a] |
| COC(=O)C(C#N)=C(NC(C)c1ccc2c(c1)OCO2)c1cccnc1Cl (stereo not drawn) [Compound 402] | 2.53^[a] |
| COC(=O)C(C#N)=C(NC(C)c1cccc(Cl)c1)c1cccnc1Cl (stereo not drawn) [Compound 403] | 3.19^[a] |
| COC(=O)C(C#N)=C(NC(C)c1ccccc1)c1cccnc1Cl (stereo not drawn) [Compound 404] | 2.89^[a] |
| CCC(NC(=C(C#N)C(=O)OC)c1cccnc1Cl)c1ccccc1 (stereo not drawn) [Compound 405] | 3.02^[a] |
| COC(=O)C(C#N)=C(NC(C)c1ccc(C(C)(C)C)cc1)c1cccnc1Cl (stereo not drawn) [Compound 406] | 4.23^[a] |
| CCc1ccc(C(C)NC(=C(C#N)C(=O)OC)c2cccnc2Cl)cc1 (stereo not drawn) [Compound 407] | 3.63^[a] |
| COC(=O)C(C#N)=C(NC(C)c1ccc(OC)cc1)c1cccnc1Cl (stereo not drawn) [Compound 408] | 2.65^[a] |
| COC(=O)C(C#N)=C(NC(C)c1ccc(C)cc1)c1cccnc1Cl (stereo not drawn) [Compound 409] | 3.28^[a] |
| CCOC(=O)C(C#N)=C(Nc1ccccc1SC)c1c(C)nn(C)c1Cl [Compound 410] | 3.42^[a] |
| CCOC(=O)C(C#N)=C(NC(C)c1ccc(Cl)cc1)c1ccsc1Br (stereo not drawn) [Compound 411] | 4.35^[a] |
| CCOC(=O)C(C#N)=C(Nc1ccccc1SC)c1ccsc1Br [Compound 412] | 3.99^[a] |
| CCOC(=O)C(C#N)=C(Nc1ccccc1SC)c1cc(C)oc1C [Compound 414] | 3.84^[a] |
| CCOC(=O)C(C#N)=C(Nc1ccccc1SC(F)(F)C(F)(F)F)c1cc(C)oc1C [Compound 415] | 4.7^[a] |
| CCOC(=O)C(C#N)=C(Nc1ccccc1SCC(F)(F)F)c1cc(C)oc1C [Compound 416] | 4.3^[a] |
| CCOC(=O)C(C#N)=C(Nc1ccccc1S(C)(=O)=O)c1cc(C)oc1C [Compound 417] | 2.65^[a] |
| CCOC(=O)C(C#N)=C(Nc1ccccc1SC(F)(F)C(F)Cl)c1cc(C)oc1C (stereo not drawn) [Compound 418] | 4.25^[a] |

| Compound | Log P |
| --- | --- |
| CCOC(=O)C(C#N)=C(Nc1ccccc1Sc1ccc(C)cc1)c1cc(C)oc1C [Compound 419] | 5.08^[a] |
| C=CCSc1ccccc1NC(=C(C#N)C(=O)OCC)c1cc(C)oc1C [Compound 420] | 4.25^[a] |
| CCOC(=O)C(C#N)=C(Nc1ccccc1SC(C)C)c1cc(C)oc1C [Compound 421] | 4.57^[a] |
| CCOC(=O)C(C#N)=C(Nc1ccccc1Br)c1cc(C)oc1C [Compound 422] | 3.99^[a] |
| COC(=O)C(C#N)=C(NC(C)Cc1ccccc1C)c1cccnc1Cl (stereo not drawn) [Compound 423] | 3.23^[a] |
| COC(=O)C(C#N)=C(NC(C)CCc1ccccc1)c1cccnc1Cl (stereo not drawn) [Compound 424] | 3.27^[a] |
| COC(=O)C(C#N)=C(NC(C)CCc1cccc(C)c1)c1cccnc1Cl (stereo not drawn) [Compound 425] | 3.68^[a] |
| COC(=O)C(C#N)=C(NC(C)Cc1ccccc1)c1cccnc1Cl (stereo not drawn) [Compound 426] | 2.98^[a] |
| COC(=O)C(C#N)=C(NC(C)c1ccc(Cl)cc1)c1sc(C)nc1C(F)(F)F (stereo not drawn) [Compound 427] | 3.98^[a] |
| COC(=O)C(C#N)=C(Nc1ccccc1SC)c1sc(C)nc1C(F)(F)F [Compound 428] | 3.46^[a] |
| CCOC(=O)C(C#N)=C(NC(C)c1ccc(Cl)cc1)c1cn(C)nc1C(F)(F)F (stereo not drawn) [Compound 430] | 3.95^[a] |
| CCOC(=O)C(C#N)=C(Nc1ccccc1SC)c1cn(C)nc1C(F)(F)F [Compound 431] | 3.48^[a] |
| CCOC(=O)C(C#N)=C(Nc1ccccc1SC)c1sc(C)nc1C(F)(F)F [Compound 432] | 3.8^[a] |
| CCOC(=O)C(C#N)=C(NC(C)c1ccc(Cl)cc1)c1sc(C)nc1C(F)(F)F (stereo not drawn) [Compound 433] | 4.27^[a] |
| CCOC(=O)C(C#N)=C(NC(C)c1ccc(Cl)cc1)c1sccc1Cl (stereo not drawn) [Compound 434] | 4.4^[a] |
| CCOC(=O)C(C#N)=C(Nc1ccccc1SC)c1sccc1Cl [Compound 435] | 3.92^[a] |
| CCOC(=O)C(C#N)=C(Nc1ccccc1SC)c1ccsc1I [Compound 436] | 3.94^[a] |
| CCOC(=O)C(C#N)=C(NC(C)CCc1ccccc1)c1sccc1C(F)(F)F (stereo not drawn) [Compound 437] | 4.56^[a] |
| CCOC(=O)C(C#N)=C(Nc1ccc(Cl)cc1)c1sccc1Br [Compound 457] | 4.11^[a] |
| CCOC(=O)C(C#N)=C(NCc1ccccc1SC)c1sccc1Br [Compound 458] | 4.01^[a] |
| CCOC(=O)C(C#N)=C(Nc1cccc(Cl)c1)c1sccc1Br [Compound 459] | 4.09^[a] |

| Compound | Log P |
| --- | --- |
| CCOC(=O)C(C#N)=C(Nc1ccccc1OC(C)C)c1sccc1C(F)(F)F [Compound 460] | 4.54^[a] |
| CCOC(=O)C(C#N)=C(Nc1ccc(OC(F)F)cc1)c1sccc1C(F)(F)F [Compound 461] | 3.78^[a] |
| CCOC(=O)C(C#N)=C(Nc1ccc(SC)cc1)c1sccc1C(F)(F)F [Compound 462] | 4.09^[a] |
| CCOC(=O)C(C#N)=C(NCc1ccccc1SC)c1sccc1C(F)(F)F [Compound 463] | 4.09^[a] |
| CCOC(=O)C(C#N)=C(NCc1ccccc1SC)c1sc(C)nc1C(F)(F)F [Compound 464] | 3.87^[a] |
| COC(=O)C(C#N)=C(Nc1ccc2ncsc2c1)c1sc(C)nc1C(F)(F)F [Compound 465] | 2.64^[a] |
| COC(=O)C(C#N)=C(NCc1ccccc1SC)c1sc(C)nc1C(F)(F)F [Compound 466] | 3.55^[a] |
| CCOC(=O)C(C#N)=C(Nc1ccccc1OC(C)C)c1sccc1Br [Compound 467] | 4.46^[a] |
| CCOC(=O)C(C#N)=C(Nc1ccc(OC(F)F)cc1)c1sccc1Br [Compound 468] | 3.73^[a] |
| CCOC(=O)C(C#N)=C(Nc1ccc2ncsc2c1)c1sccc1Br [Compound 469] | 3.09^[a] |
| CCOC(=O)C(C#N)=C(Nc1ccc(SC)cc1)c1sccc1Br [Compound 470] | 4.01^[a] |
| CCOC(=O)C(C#N)=C(Nc1ccccc1OC(C)C)c1cn(C)nc1C(F)F [Compound 471] | 3.53^[a] |
| CCOC(=O)C(C#N)=C(Nc1ccc(OC(F)F)cc1)c1cn(C)nc1C(F)F [Compound 472] | 3.04^[a] |
| CCOC(=O)C(C#N)=C(Nc1ccc2ncsc2c1)c1cn(C)nc1C(F)F [Compound 473] | 2.44^[a] |
| CCOC(=O)C(C#N)=C(Nc1ccc(SC)cc1)c1cn(C)nc1C(F)F [Compound 474] | 3.19^[a] |
| CCOC(=O)C(C#N)=C(Nc1ccc(Cl)cc1)c1cn(C)nc1C(F)F [Compound 475] | 3.23^[a] |
| CCOC(=O)C(C#N)=C(NCc1ccccc1SC)c1cn(C)nc1C(F)F [Compound 476] | 3.17^[a] |
| CCOC(=O)C(C#N)=C(Nc1cccc(Cl)c1)c1cn(C)nc1C(F)F [Compound 477] | 3.21^[a] |
| CCOC(=O)C(C#N)=C(Nc1ccc2ncsc2c1)c1sc(C)nc1C(F)(F)F [Compound 479] | 2.98^[a] |
| CCOC(=O)C(C#N)=C(Nc1ccc(SC)cc1)c1sc(C)nc1C(F)(F)F [Compound 480] | 3.87^[a] |
| CCOC(=O)C(C#N)=C(Nc1ccc(C(C)C)cc1)c1sccc1C(F)(F)F [Compound 481] | 4.75^[a] |

| Compound | Log P |
| --- | --- |
| CCOC(=O)C(C#N)=C(Nc1cccc(SC)c1)c1sccc1C(F)(F)F [Compound 482] | 4.04^[a] |
| CCOC(=O)C(C#N)=C(Nc1ccc(OC)cc1)c1sccc1C(F)(F)F [Compound 483] | 3.62^[a] |
| CCOC(=O)C(C#N)=C(Nc1ccc(N(C)C)cc1)c1sccc1C(F)(F)F [Compound 484] | 3.89^[a] |
| COC(=O)C(C#N)=C(Nc1ccc(OC)cc1)c1sc(C)nc1C(F)(F)F [Compound 485] | 3.06^[a] |
| COC(=O)C(C#N)=C(Nc1ccc(N(C)C)cc1)c1sc(C)nc1C(F)(F)F [Compound 486] | 3.31^[a] |
| COC(=O)C(C#N)=C(Nc1ccc(C(C)C)cc1)c1sc(C)nc1C(F)(F)F [Compound 487] | 4.14^[a] |
| CCOC(=O)C(C#N)=C(Nc1ccc(OC)cc1)c1sccc1Br [Compound 488] | 3.55^[a] |
| CCOC(=O)C(C#N)=C(Nc1ccc(N(C)C)cc1)c1sccc1Br [Compound 489] | 3.76^[a] |
| CCOC(=O)C(C#N)=C(Nc1ccc(C(C)C)cc1)c1sccc1Br [Compound 490] | 4.73^[a] |
| CCOC(=O)C(C#N)=C(Nc1cccc(SC)c1)c1sccc1Br [Compound 491] | 3.96^[a] |
| CCOC(=O)C(C#N)=C(Nc1ccc(OC)cc1)c1sc(C)nc1C(F)(F)F [Compound 492] | 3.44^[a] |
| CCOC(=O)C(C#N)=C(Nc1ccc(N(C)C)cc1)c1sc(C)nc1C(F)(F)F [Compound 493] | 3.71^[a] |
| CCOC(=O)C(C#N)=C(Nc1ccc(C(C)C)cc1)c1sc(C)nc1C(F)(F)F [Compound 494] | 4.54^[a] |
| CCOC(=O)C(C#N)=C(Nc1ccc(OC)cc1)c1cn(C)nc1C(F)F [Compound 495] | 2.77^[a] |
| CCOC(=O)C(C#N)=C(Nc1ccc(N(C)C)cc1)c1cn(C)nc1C(F)F [Compound 496] | 2.71^[a] |
| CCOC(=O)C(C#N)=C(Nc1ccc(C(C)C)cc1)c1cn(C)nc1C(F)F [Compound 497] | 3.76^[a] |
| CCOC(=O)C(C#N)=C(Nc1cccc(SC)c1)c1cn(C)nc1C(F)F [Compound 498] | 3.17^[a] |
| CCOC(=O)C(C#N)=C(Nc1ccccc1SC)c1cc(Cl)sc1Cl [Compound 500] | 4.59^[a] |
| CCOC(=O)C(C#N)=C(NC1(c2c(F)cccc2F)CC1)c1cc(Cl)sc1Cl [Compound 501] | 4.62^[a] |
| CCOC(=O)C(C#N)=C(Nc1ccccc1SC)c1nc(Cl)ccc1Cl [Compound 502] | 3.99^[a] |
| CCOC(=O)C(C#N)=C(Nc1ccccc1SC)c1ncc(Cl)cc1Cl [Compound 503] | 4.09^[a] |
